Reference: patent US20080269233A1, “Piperidinoyl-Pyrrolidine and Piperidinoyl-Piperidine Compounds” (priority 2006, published 2008)
pEC50: −log10 of the molar value.

Assays:
MC4 receptor = MC4 receptor (Homo sapiens, UniProt P32245); test: MC4 receptor functional potency (EC50), Protocol E of WO 2005/077935; format: cell-based; conditions: read-out: functional potency at the MC4 receptor expressed as an EC50
Protocol: MC5 and MC4 activity was determined as described by assay protocols D and E, respectively, in US2005/0176772 (pages 28-30).

[1] = tested on: men with psychogenic and organic ED; conditions: cited from earlier work

MC4 receptor, sequence (P32245 whole entry): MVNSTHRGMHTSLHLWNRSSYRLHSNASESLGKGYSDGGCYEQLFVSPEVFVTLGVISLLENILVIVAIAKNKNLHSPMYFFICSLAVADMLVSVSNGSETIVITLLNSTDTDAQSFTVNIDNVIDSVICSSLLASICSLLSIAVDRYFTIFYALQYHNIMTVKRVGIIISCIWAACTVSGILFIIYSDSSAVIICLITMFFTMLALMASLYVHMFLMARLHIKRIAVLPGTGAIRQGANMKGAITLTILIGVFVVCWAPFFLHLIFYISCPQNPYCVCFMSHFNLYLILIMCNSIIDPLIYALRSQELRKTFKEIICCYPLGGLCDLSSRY

Molecule | pEC50 (MC4 receptor) | increased sexual desire reported (share of doses) ([1]; 13/19 doses, questionnaire, P<0.01 vs placebo) [%] | subjects with severe nausea ([1]; dose of 0.025 mg/kg) [%] | penile erection (number of men) ([1]; in the absence of sexual stimulation, men with psychogenic and organic ED) | mean duration of Rigiscan tip rigidity >80% ([1]; penile rigidity monitored for 6 hours using RigiScan) [min]
CO[C@H]1CN(C(=O)[C@@H]2CN(c3cccnn3)C[C@H]2c2ccc(F)cc2F)CC[C@]1(OC)c1ccccc1 [Example 8, 3-[(3R,4S)-3-(2,4-difluorophenyl)-4-{[(3S,4S)-3,4-dimethoxy-4-phenylpiperidin-1-yl]carbonyl}pyrrolidin-1-yl]pyridazine] | 8.82 | – | – | – | –
CCO[C@@H]1CN(C(=O)[C@@H]2CN(c3cccnn3)C[C@H]2c2ccc(F)cc2F)CC[C@@]1(O)c1ccccc1 [Example 13, (3R,4R)-1-{[(3S,4R)-4-(2,4-difluorophenyl)-1-pyridazin-3-ylpyrrolidin-3-yl]carbonyl}-3-ethoxy-4-phenylpiperidin-4-ol] | 7.36 | – | – | – | –
CO[C@H]1CN(C(=O)[C@@H]2CN(c3cccnn3)C[C@H]2c2ccc(F)cc2F)CC[C@]1(OC)c1ccc(F)cc1 [Example 15, 3-[(3R,4S)-3-(2,4-difluorophenyl)-4-{[(3S,4S)-4-(4-fluorophenyl)-3,4-dimethoxypiperidin-1-yl]carbonyl}pyrrolidin-1-yl]pyridazine] | 7.94 | – | – | – | –
Melanotan II | – | 68 | 12.9 | 17 of 20 | 41
